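Growth conditions: 96-well plates. Treatment: test compound, 48 hours, 5 concentrations. Analysis: linear interpolation between bracketing concentrations; unreached endpoints set to highest concentration. At the GI50, growth is halved. TGI: total growth inhibition.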
Key:
Test in all cases: inhibition of tumour cell growth, NCI panel, 48 h
[1] = test system: HCC-2998 colon
[2] = test system: EKVX NSCLC
[3] = test system: SK-MEL-28 melanoma
[4] = test system: HOP-92 NSCLC
[5] = test system: UACC-62 melanoma
[6] = test system: CCRF-CEM leukemia
[7] = test system: OVCAR-3 ovarian
[8] = test system: K-562 leukemia
[9] = test system: SK-MEL-2 melanoma
[10] = test system: NCI/ADR-RES ovarian
[11] = test system: OVCAR-8 ovarian
[12] = test system: M14 melanoma
[13] = test system: ACHN renal
[14] = test system: NCI-H226 lung
[15] = test system: SF-295 CNS
[16] = test system: MALME-3M melanoma
[17] = test system: A549 NSCLC
[18] = test system: SW-620 colon
[19] = test system: U251 CNS
[20] = test system: SK-MEL-5 melanoma
[21] = test system: SF-539 CNS
[22] = test system: RXF 393 renal
[23] = test system: CAKI-1 renal
[24] = test system: A498 renal
[25] = test system: NCI-H460 lung
[26] = test system: NCI-H23 lung
[27] = test system: DU-145 prostate
[28] = test system: BT-549 breast
[29] = test system: COLO 205 colon
[30] = test system: HCT-116 colon
[31] = test system: MCF7 breast
[32] = test system: OVCAR-5 ovarian
[33] = test system: LOX IMVI melanoma
[34] = test system: SR leukemia
[35] = test system: SN12C renal
[36] = test system: MOLT-4 leukemia
[37] = test system: MDA-MB-231 breast
[38] = test system: UACC-257 melanoma
[39] = test system: SK-OV-3 ovarian
[40] = test system: TK-10 renal
[41] = test system: SF-268 CNS
[42] = test system: IGROV1 ovarian
[43] = test system: HT29 colon
[44] = test system: KM12 colon
[45] = test system: UO-31 renal
[46] = test system: PC-3 prostate
[47] = test system: HCT-15 colon
[48] = test system: 786-0 renal
[49] = test system: SNB-19 CNS
[50] = test system: HS 578T breast
[51] = test system: HL-60(TB) leukemia
[52] = test system: NCI-H522 lung
[53] = test system: RPMI-8226 leukemia
[54] = test system: T-47D breast
[55] = test system: SNB-75 CNS
[56] = test system: MDA-MB-435
[57] = test system: HOP-62 NSCLC
[58] = test system: OVCAR-4 ovarian

For `COC(=O)c1c2c(c(C)[n+]([O-])c1C)C(=O)C(NCc1cccc(OC)c1)=CC2=O`, the GI50 [1] was 3.12 µM, the TGI [1] was 9.64 µM and the GI50 [2] was 2.11 µM. It also gave a TGI [2] of 5.44 µM, a GI50 [3] of 4.6 µM and a TGI [3] of 18.2 µM. It also gave a GI50 [4] of 2.75 µM, a TGI [4] of 6.57 µM and a GI50 [5] of 1.7 µM. It also gave a TGI [5] of 3.48 µM, a GI50 [6] of 3.09 µM and a TGI [6] of 17.1 µM. The GI50 [7] was 0.512 µM, the TGI [7] was 3.21 µM and the GI50 [8] was 2.98 µM. The TGI [8] was > 100 µM, the GI50 [9] was 2.55 µM and the TGI [9] was 7.49 µM. For the same compound, the GI50 [10] was 2.36 µM, the TGI [10] was 6.74 µM and the GI50 [11] was 2.52 µM. It also gave a TGI [11] of 10.3 µM, a GI50 [12] of 1.79 µM and a TGI [12] of 3.72 µM. For the same compound, the GI50 [13] was 2.84 µM, the TGI [13] was 10.2 µM and the GI50 [14] was 3.32 µM. It also gave a TGI [14] of 13 µM, a GI50 [15] of 2.05 µM and a TGI [15] of 6.13 µM. For the same compound, the GI50 [16] was 0.318 µM, the TGI [16] was 1.3 µM and the GI50 [17] was 2.35 µM. It also gave a TGI [17] of 9.36 µM, a GI50 [18] of 2.65 µM and a TGI [18] of 8.96 µM. For the same compound, the GI50 [19] was 2.65 µM, the TGI [19] was 10.6 µM and the GI50 [20] was 1.2 µM. For the same compound, the TGI [20] was 2.47 µM, the GI50 [21] was 2.02 µM and the TGI [21] was 4.15 µM. It also gave a GI50 [22] of 2.58 µM, a TGI [22] of 5.2 µM and a GI50 [23] of 2.79 µM. For the same compound, the TGI [23] was 10.3 µM, the GI50 [24] was 1.79 µM and the TGI [24] was 5.3 µM. It also gave a GI50 [25] of 1.71 µM, a TGI [25] of 8 µM and a GI50 [26] of 1.84 µM. For the same compound, the TGI [26] was 4.41 µM, the GI50 [27] was 3.43 µM and the TGI [27] was 12 µM. It also gave a GI50 [28] of 3.49 µM, a TGI [28] of 13.4 µM and a GI50 [29] of 1.1 µM. For the same compound, the TGI [29] was 2.86 µM, the GI50 [30] was 2.53 µM and the TGI [30] was 10 µM. It also gave a GI50 [31] of 1.65 µM, a TGI [31] of 3.63 µM and a GI50 [32] of 2.05 µM. The TGI [32] was 4.76 µM, the GI50 [33] was 2.36 µM and the TGI [33] was 6.86 µM. The GI50 [34] was 2.36 µM, the TGI [34] was > 100 µM and the GI50 [35] was 1.97 µM. The TGI [35] was 4.94 µM, the GI50 [36] was 2.39 µM and the TGI [36] was 6.67 µM. The GI50 [37] was 2.21 µM, the TGI [37] was 6.24 µM and the GI50 [38] was 1.55 µM. The TGI [38] was 3.27 µM, the GI50 [39] was 3.53 µM and the TGI [39] was 13.6 µM. It also gave a GI50 [40] of 4.55 µM, a TGI [40] of 22.7 µM and a GI50 [41] of 2.86 µM. The TGI [41] was 11.7 µM, the GI50 [42] was 1.69 µM and the TGI [42] was 4.11 µM. The GI50 [43] was 2.51 µM, the TGI [43] was > 100 µM and the GI50 [44] was 2.48 µM. The TGI [44] was 11.6 µM, the GI50 [45] was 2.27 µM and the TGI [45] was 9.25 µM. The GI50 [46] was 2.63 µM, the TGI [46] was 14.8 µM and the GI50 [47] was 1.89 µM. The TGI [47] was 4.73 µM, the GI50 [48] was 3.6 µM and the TGI [48] was 27.1 µM. The GI50 [49] was 2.42 µM, the TGI [49] was 7 µM and the GI50 [50] was 4.1 µM. It also gave a TGI [50] of 34.7 µM, a GI50 [51] of 1.78 µM and a TGI [51] of 5.39 µM. For the same compound, the GI50 [52] was 1.92 µM, the TGI [52] was 5.02 µM and the GI50 [53] was 2.93 µM. The TGI [53] was 15.9 µM, the GI50 [54] was 2.23 µM and the TGI [54] was 5.47 µM. For the same compound, the GI50 [55] was 3.03 µM, the TGI [55] was 12.9 µM and the GI50 [56] was 1.67 µM. It also gave a TGI [56] of 3.05 µM, a GI50 [57] of 3.07 µM and a TGI [57] of 25.3 µM. The GI50 [58] was 1.27 µM and the TGI [58] was 2.55 µM.
`Cc1ccccc1-n1c(/C=C\c2ccccn2)nc2ccccc2c1=O` showed a GI50 [1] of 15.9 µM, a TGI [1] of 29.9 µM and a GI50 [2] of 23.7 µM. For the same compound, the TGI [2] was > 100 µM, the GI50 [3] was 18.4 µM and the TGI [3] was 39.8 µM. It also gave a GI50 [4] of 3.32 µM, a TGI [4] of 67.1 µM and a GI50 [5] of 14.2 µM. For the same compound, the TGI [5] was 45 µM, the GI50 [6] was 4.24 µM and the TGI [6] was 30.1 µM. For the same compound, the GI50 [7] was 6.75 µM, the TGI [7] was 53.6 µM and the GI50 [8] was 4.42 µM. For the same compound, the TGI [8] was 90.2 µM, the GI50 [9] was 14.4 µM and the TGI [9] was 38.5 µM. It also gave a GI50 [10] of 7.16 µM, a TGI [10] of 79.5 µM and a GI50 [11] of 21.4 µM. The TGI [11] was > 100 µM, the GI50 [12] was 14.2 µM and the TGI [12] was 33.9 µM. The GI50 [13] was 12.8 µM, the TGI [13] was > 100 µM and the GI50 [14] was 28.8 µM. For the same compound, the TGI [14] was > 100 µM, the GI50 [15] was 6.76 µM and the TGI [15] was 47.3 µM. For the same compound, the GI50 [16] was 18.8 µM, the TGI [16] was 42.1 µM and the GI50 [17] was 26 µM. For the same compound, the TGI [17] was > 100 µM, the GI50 [18] was 13.2 µM and the TGI [18] was 56.2 µM. The GI50 [19] was 11 µM, the TGI [19] was 25.8 µM and the GI50 [20] was 9.61 µM. The TGI [20] was 22.6 µM, the GI50 [21] was 18.6 µM and the TGI [21] was 55 µM. It also gave a GI50 [22] of 4.33 µM, a TGI [22] of 20 µM and a GI50 [23] of 3.32 µM. For the same compound, the TGI [23] was 16.9 µM, the GI50 [24] was 9.47 µM and the TGI [24] was 70.6 µM. The GI50 [25] was 9.29 µM, the TGI [25] was 42.1 µM and the GI50 [26] was 6.06 µM. For the same compound, the TGI [26] was 57.4 µM, the GI50 [27] was 3.4 µM and the TGI [27] was 11.3 µM. The GI50 [28] was 7.44 µM, the TGI [28] was 22.3 µM and the GI50 [29] was 9.65 µM. It also gave a TGI [29] of 28.5 µM, a GI50 [30] of 6.87 µM and a TGI [30] of 22 µM. For the same compound, the GI50 [31] was 10.1 µM, the TGI [31] was 58.7 µM and the GI50 [32] was 19.5 µM. The TGI [32] was > 100 µM, the GI50 [33] was 15 µM and the TGI [33] was 37 µM. For the same compound, the GI50 [34] was 3.05 µM, the TGI [34] was 20.4 µM and the GI50 [35] was 21.2 µM. For the same compound, the TGI [35] was > 100 µM, the GI50 [36] was 6.16 µM and the TGI [36] was 27.7 µM. For the same compound, the GI50 [37] was 4.69 µM, the TGI [37] was 59.2 µM and the GI50 [38] was 31 µM. The TGI [38] was > 100 µM, the GI50 [39] was 35.3 µM and the TGI [39] was > 100 µM. The GI50 [40] was 32.6 µM, the TGI [40] was > 100 µM and the GI50 [41] was 15.2 µM. The TGI [41] was > 100 µM, the GI50 [42] was 13.2 µM and the TGI [42] was 63.9 µM. For the same compound, the GI50 [43] was 19.7 µM, the TGI [43] was > 100 µM and the GI50 [44] was 11.1 µM. The TGI [44] was 27.9 µM, the GI50 [45] was 7.51 µM and the TGI [45] was > 100 µM. The GI50 [46] was 6.41 µM, the TGI [46] was 65.4 µM and the GI50 [47] was 7.39 µM. For the same compound, the TGI [47] was 37.2 µM, the GI50 [48] was 20.6 µM and the TGI [48] was 64.4 µM. The GI50 [49] was 32.1 µM, the TGI [49] was > 100 µM and the GI50 [50] was 15.5 µM. The TGI [50] was > 100 µM, the GI50 [51] was 6.12 µM and the TGI [51] was > 100 µM. The GI50 [52] was 5.7 µM, the TGI [52] was 39.1 µM and the GI50 [53] was 2.51 µM. The TGI [53] was 15 µM, the GI50 [54] was 5.99 µM and the TGI [54] was 64.8 µM. For the same compound, the GI50 [55] was 16.9 µM, the TGI [55] was > 100 µM and the GI50 [56] was 8.23 µM. The TGI [56] was 53 µM, the GI50 [57] was 47.4 µM and the TGI [57] was > 100 µM. For the same compound, the GI50 [58] was 18.1 µM and the TGI [58] was > 100 µM.
